{"source": "patent US6830883B1", "about": "“Method for typing of minor histocompatibility antigen HA-1” (Rijksuniversiteit Leiden, priority 1997, dated 2004)", "key": {"[1]": {"tested_on": "HA-1 specific T cell clones 3HA15, clone 15 and 5W38 (T2 target cells)", "assay": "51Cr-release reconstitution assay: synthetic peptide on T2 cells with HA-1 specific CTL clones", "type": "cell-based, human", "conditions": "for recognition by HA-1 specific CTL clones / reconstitution of the HA-1 epitope: synthetic peptide titrated on T2 cells, 51Cr-release", "procedure": "b. Reconstitution assay with different concentrations of synthetic mH HA-1 peptide with three HA-1 specific T cell clones, 3HA15, clone 15 and 5W38. Background lysis of T2 by the CTL in the absence of any peptide was for 3HA15 4%, for clone 15 10% and for 5W38 2%. Positive control lysis was for 3HA15 46%, for clone 15 47% and 5W38 48 48%.\nb. Reconstitution assay with different concentrations of synthetic […] peptide with HA-1 specific T cells. The HA-1^R peptide was titrated and preincubated with T2 cells. Three HA-1 specific T cells clones, 5W38, 3HA15 and clone 15 were added and a 4 hr ^51Cr-release assay was performed. Background lysis of T2 by the CTL in the absence of any peptide was for 3HA15 4%, for clone 15 10% and for 5W38 2%. Positive control lysis was for 3HA15 46%, for clone 15 47% and 5W38 48%.\nHPLC fractions and synthetic peptides were tested in a ^51Cr-release assay as described^24. 2500 ^51Cr labeled T2 cells in 25 μl were incubated with 25 μl peptide dissolved in Hanks 50 mM Hepes for 30 minutes at 37° C. Cytotoxic T cells were added in an endvolume of 150 μl. When HPLC peptide fractions were tested, T2 was incubated with 2 μg/ml MA2.1 during the ^51Cr labelling. After 4 hours at 37° C. the supernatants were harvested."}, "[2]": {"tested_on": "recombinant HLA-A2.1 and β2-microglobulin", "assay": "HLA-A2.1 peptide binding assay (inhibition of binding of fluorescent standard peptide […], cell free)", "design": "species or system human", "conditions": "for IC50: cell free, determined on the results of 4 experiments, read-out: IC50 (concentration that inhibited the binding of a fluorescent standard peptide to HLA-A2.1 by 50%); for binder category for HLA-A2.1: classified from the IC50", "procedure": "a. Binding of HA-1^H and HA-1^R peptides to HLA-A2.1. The binding of HA-1^H and HA-1^R peptides were assayed for their ability to inhibit the binding of fluorescent peptide […] to recombinant HLA-A2.1 and β2-microglobulin in a cell free peptide binding assay. One representative experiment is shown.\nA quantitative assay for HLA-A2.1 binding peptides based on the inhibition of binding of the flourescent labeled standard peptide Hbc 18-27 F to C6 ([…]) to recombinant HLA-A2.1 protein and β2-microglobulin was used ^26,27. In short, HLA-A2.1 concentrations yielding approximately 40-60% bound fluorescent standard peptide were used with 15 pmol/well (150 nM) β2-microglobulin (Sigma). Various doses of the test peptides were coincubated with 100 fmol/well (1 nM) fluorescent standard peptide. HLA-A2.1 and β2-microglobulin for 1 days at room temperature in the dark in a volume of 100 μl in assay buffer. The percent of MHC-bound fluoescence was determined by gel filtration and the 50% inhibitory dose was deduced for each peptide using one-site competition non-linear regression analysis with the prismgraph software. Synthetic peptides were manufactured on a Abimed 422 multiple peptide synthesizer (Abimed, Langenfeld, Germany) and were more than 90% pure as checked by reverse phase HPLC."}}, "note": "Where no end group is shown, it is not given here."}
{"sequence": "VLHDDLLEA", "values": [{"measurement": "EC50", "setting": "[1]; 3 different HA-1 specific CTL clones, T2 target cells, 4 hr, read-out: half maximal activity in CML (51Cr-release) assay", "result": "0.15 to 0.2", "unit": "nM"}, {"measurement": "recognition by HA-1 specific CTL clones / reconstitution of the HA-1 epitope", "setting": "[1]", "result": "recognition by all three clones"}, {"measurement": "IC50", "setting": "[2]", "result": 30, "unit": "nM"}, {"measurement": "binder category for HLA-A2.1", "setting": "[2]", "result": "high affinity binders"}]}
{"sequence": "VLRDDLLEA", "values": [{"measurement": "peptide concentration needed for recognition, times higher than for the HA-1^H peptide", "setting": "[1]; clone 3HA15", "result": 1000, "unit": "times"}, {"measurement": "recognition by HA-1 specific CTL clones / reconstitution of the HA-1 epitope", "setting": "[1]", "result": "One out of three clones (3HA15) tested showed recognition"}, {"measurement": "binding affinity for HLA-A2.1, fold lower than the HA-1^H peptide", "setting": "[2]; HA-1^R versus HA-1^H peptide", "result": 10, "unit": "fold"}, {"measurement": "IC50", "setting": "[2]", "result": 365, "unit": "nM"}, {"measurement": "binder category for HLA-A2.1", "setting": "[2]", "result": "intermediate binders"}]}
{"sequence": "YXTDRVMTV [synthetic peptide of candidate m/z 550; X stands for isoleucine or leucine]", "values": [{"measurement": "recognition by HA-1 specific CTL clones / reconstitution of the HA-1 epitope", "setting": "[1]", "result": "not able to reconstitute the HA-1 epitope"}]}
